Reference: ChEMBL document CHEMBL3992518, “Peptide Macrocycle Inhibitor of Coagulation Factor XII with Subnanomolar Affinity and High Target Selectivity” (J Med Chem, 2017)
*1 amine or outer side, *2 acyl side, *3 side chain or, on linkers, in order; H or OH if unused. Where a SMILES comes first, the peptide text is derived from it. Bridges are numbered along the chain shown (N, C = ends). TATA = O=C(CC[*:1])N1CN(C(=O)CC[*:2])CN(C(=O)CC[*:3])C1

molecular target: T1, Coagulation factor XII (Homo sapiens, UniProt P00748); assay: Inhibition of human beta factor 12a using fluorogenic substrate Boc-Gln-Gly-Arg-AMC preincubated for 10 mins followed by addition of substrate measured every min for 30 mins
T1 sequence (P00748 whole entry): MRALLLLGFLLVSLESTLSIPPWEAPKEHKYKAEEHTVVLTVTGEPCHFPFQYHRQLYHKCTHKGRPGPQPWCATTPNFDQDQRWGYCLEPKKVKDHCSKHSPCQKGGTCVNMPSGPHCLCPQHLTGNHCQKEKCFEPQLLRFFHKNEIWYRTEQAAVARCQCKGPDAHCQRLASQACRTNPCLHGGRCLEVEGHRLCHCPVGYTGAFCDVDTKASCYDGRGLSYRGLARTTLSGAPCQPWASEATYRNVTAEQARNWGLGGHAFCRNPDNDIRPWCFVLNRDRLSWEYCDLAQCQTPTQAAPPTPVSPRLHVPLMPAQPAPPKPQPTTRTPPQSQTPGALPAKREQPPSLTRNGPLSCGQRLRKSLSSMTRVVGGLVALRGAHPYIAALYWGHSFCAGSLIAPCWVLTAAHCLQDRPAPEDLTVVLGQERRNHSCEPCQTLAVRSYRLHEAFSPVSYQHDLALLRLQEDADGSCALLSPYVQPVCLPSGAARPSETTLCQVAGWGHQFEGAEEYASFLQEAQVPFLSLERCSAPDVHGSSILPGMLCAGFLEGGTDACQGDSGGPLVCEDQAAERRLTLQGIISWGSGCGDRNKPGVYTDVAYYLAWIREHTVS

SMILES | Ki [nM]
CC(C)C[C@@H]1NC(=O)[C@H](CCC(=O)O)NC(=O)[C@H](CCCNC(=N)N)NC(=O)[C@@H]2CSCCC(=O)N3CN(CN(C3)C(=O)CCSC[C@H](NC(=O)[C@@H](N)CCCNC(=N)N)C(=O)N[C@@H](Cc3ccccc3)C(=O)N[C@@H](CCCNC(=N)N)C(=O)N[C@@H](CC(C)C)C(=O)N3CCC[C@H]3C(=O)N2)C(=O)CCSC[C@@H](C(=O)N[C@@H](CCCNC(=N)N)C(=O)N[C@@H](Cc2c[nH]c3ccccc23)C(=O)O)NC(=O)[C@H](CCCNC(=N)N)NC1=O (H-RCFRLPCRELRCRW-OH; linker 2-7-12 via TATA) | > 3000
CC(C)C[C@@H]1NC(=O)[C@H](CCCNC(=N)N)NC(=O)[C@H](Cc2ccccc2)NC(=O)[C@@H](NC(=O)[C@@H](N)CCCNC(=N)N)CSCCC(=O)N2CN3CN(C2)C(=O)CCSC[C@H](NC(=O)[C@@H]2CCCN2C1=O)C(=O)N[C@@H](CCCNC(=N)N)C(=O)N[C@@H](CCC(N)=O)C(=O)N[C@@H](C)C(=O)N[C@@H](CCCNC(=N)N)C(=O)N[C@H](C(=O)N[C@@H](CCCNC(=N)N)C(=O)N[C@@H](Cc1c[nH]c2ccccc12)C(=O)O)CSCCC3=O (H-RCFRLPCRQARCRW-OH; linker 2-7-12 via TATA) | 1040
CC(C)C[C@@H]1NC(=O)[C@H](CCC(N)=O)NC(=O)[C@H](CCCNC(=N)N)NC(=O)[C@@H]2CSCCC(=O)N3CN(CN(C3)C(=O)CCSC[C@H](NC(=O)[C@@H](N)CCCNC(=N)N)C(=O)N[C@@H](C(C)C)C(=O)N[C@@H](CCCNC(=N)N)C(=O)N[C@@H](CC(C)C)C(=O)N3CCC[C@H]3C(=O)N2)C(=O)CCSC[C@@H](C(=O)N[C@@H](CCCNC(=N)N)C(=O)N[C@@H](Cc2c[nH]c3ccccc23)C(=O)O)NC(=O)[C@H](CCCNC(=N)N)NC1=O (H-RCVRLPCRQLRCRW-OH; linker 2-7-12 via TATA) | 160
CCC(CC)C1NC(=O)[C@H](CCC(N)=O)NC(=O)[C@H](CCCNC(=N)N)NC(=O)[C@@H]2CSCCC(=O)N3CN(CN(C3)C(=O)CCSC[C@H](NC(=O)[C@@H](N)CCCNC(=N)N)C(=O)N[C@@H](Cc3ccccc3)C(=O)N[C@@H](CCCNC(=N)N)C(=O)N[C@@H](CC(C)C)C(=O)N3CCC[C@H]3C(=O)N2)C(=O)CCSC[C@@H](C(=O)N[C@@H](CCCNC(=N)N)C(=O)N[C@@H](Cc2c[nH]c3ccccc23)C(=O)O)NC(=O)[C@H](CCCNC(=N)N)NC1=O (stereo partly specified) | 38
CC(C)C[C@@H]1NC(=O)[C@H](CCC(N)=O)NC(=O)[C@H](CCCNC(=N)N)NC(=O)[C@@H]2CSCCC(=O)N3CN(CN(C3)C(=O)CCSC[C@H](NC(=O)[C@@H](N)CCCNC(=N)N)C(=O)N[C@@H](Cc3ccccc3)C(=O)N[C@@H](CCCNC(=N)N)C(=O)N[C@@H](C)C(=O)N3CCC[C@H]3C(=O)N2)C(=O)CCSC[C@@H](C(=O)N[C@@H](CCCNC(=N)N)C(=O)N[C@@H](Cc2c[nH]c3ccccc23)C(=O)O)NC(=O)[C@H](CCCNC(=N)N)NC1=O (H-RCFRAPCRQLRCRW-OH; linker 2-7-12 via TATA) | > 3000
CC[C@H](C)[C@@H]1NC(=O)[C@@H](NC(=O)[C@@H](N)CCCNC(=N)N)CSCCC(=O)N2CN3CN(C2)C(=O)CCSC[C@H](NC(=O)[C@@H]2CCCN2C(=O)[C@H](CC(C)C)NC(=O)[C@H](CCCNC(=N)N)NC1=O)C(=O)N[C@@H](CCCNC(=N)N)C(=O)N[C@@H](CCC(N)=O)C(=O)N[C@@H](CC(C)C)C(=O)N[C@@H](CCCNC(=N)N)C(=O)N[C@H](C(=O)N[C@@H](CCCNC(=N)N)C(=O)N[C@@H](Cc1c[nH]c2ccccc12)C(=O)O)CSCCC3=O (H-RCIRLPCRQLRCRW-OH; linker 2-7-12 via TATA) | 310
CC(C)C[C@@H]1NC(=O)[C@H](CCC(N)=O)NC(=O)[C@H](CCCNC(=N)N)NC(=O)[C@@H]2CSCCC(=O)N3CN(CN(C3)C(=O)CCSC[C@H](NC(=O)[C@@H](N)CCCNC(=N)N)C(=O)N[C@@H](Cc3ccc4ccccc4c3)C(=O)N[C@@H](CCCNC(=N)N)C(=O)N[C@@H](CC(C)C)C(=O)N3CCC[C@H]3C(=O)N2)C(=O)CCSC[C@@H](C(=O)N[C@@H](CCCNC(=N)N)C(=O)N[C@@H](Cc2c[nH]c3ccccc23)C(=O)O)NC(=O)[C@H](CCCNC(=N)N)NC1=O | 6
CC(C)C[C@@H]1NC(=O)[C@H](CCC(N)=O)NC(=O)[C@H](CCCNC(=N)N)NC(=O)[C@@H]2CSCCC(=O)N3CN(CN(C3)C(=O)CCSC[C@H](NC(=O)[C@@H](N)CCCNC(=N)N)C(=O)N[C@@H](CCc3ccccc3)C(=O)N[C@@H](CCCNC(=N)N)C(=O)N[C@@H](CC(C)C)C(=O)N3CCC[C@H]3C(=O)N2)C(=O)CCSC[C@@H](C(=O)N[C@@H](CCCNC(=N)N)C(=O)N[C@@H](Cc2c[nH]c3ccccc23)C(=O)O)NC(=O)[C@H](CCCNC(=N)N)NC1=O | 366
CC(C)C[C@@H]1NC(=O)[C@H](CCC(N)=O)NC(=O)[C@H](CCCNC(=N)N)NC(=O)[C@@H]2CSCCC(=O)N3CN(CN(C3)C(=O)CCSC[C@H](NC(=O)[C@@H](N)CCCNC(=N)N)C(=O)N[C@@H](Cc3ccccc3)C(=O)N[C@@H](CCCNC(=N)N)C(=O)N[C@@H](CC(C)C)C(=O)N[C@@H](CC(=O)O)C(=O)N2)C(=O)CCSC[C@@H](C(=O)N[C@@H](CCCNC(=N)N)C(=O)N[C@@H](Cc2c[nH]c3ccccc23)C(=O)O)NC(=O)[C@H](CCCNC(=N)N)NC1=O (H-RCFRLDCRQLRCRW-OH; linker 2-7-12 via TATA) | 120
CC(C)C[C@@H]1NC(=O)[C@H](CC(N)=O)NC(=O)[C@H](CCCNC(=N)N)NC(=O)[C@@H]2CSCCC(=O)N3CN(CN(C3)C(=O)CCSC[C@H](NC(=O)[C@@H](N)CCCNC(=N)N)C(=O)N[C@@H](Cc3ccccc3)C(=O)N[C@@H](CCCNC(=N)N)C(=O)N[C@@H](CC(C)C)C(=O)N3CCC[C@H]3C(=O)N2)C(=O)CCSC[C@@H](C(=O)N[C@@H](CCCNC(=N)N)C(=O)N[C@@H](Cc2c[nH]c3ccccc23)C(=O)O)NC(=O)[C@H](CCCNC(=N)N)NC1=O (H-RCFRLPCRNLRCRW-OH; linker 2-7-12 via TATA) | 1000
CC(C)C[C@@H]1NC(=O)[C@H](CCC(N)=O)NC(=O)[C@H](CCCNC(=N)N)NC(=O)[C@@H]2CSCCC(=O)N3CN(CN(C3)C(=O)CCSC[C@H](NC(=O)[C@@H](N)CCCNC(=N)N)C(=O)N[C@@H](Cc3ccncc3)C(=O)N[C@@H](CCCNC(=N)N)C(=O)N[C@@H](CC(C)C)C(=O)N3CCC[C@H]3C(=O)N2)C(=O)CCSC[C@@H](C(=O)N[C@@H](CCCNC(=N)N)C(=O)N[C@@H](Cc2c[nH]c3ccccc23)C(=O)O)NC(=O)[C@H](CCCNC(=N)N)NC1=O | 57
CC(C)C[C@@H]1NC(=O)[C@H](CCC(N)=O)NC(=O)[C@H](CCCNC(=N)N)NC(=O)[C@@H]2CSCCC(=O)N3CN(CN(C3)C(=O)CCSC[C@H](NC(=O)[C@@H](N)CCCNC(=N)N)C(=O)N[C@@H](Cc3ccccc3)C(=O)N[C@@H](CCCNC(=N)N)C(=O)N[C@@H](CC(C)C)C(=O)N[C@@H](CO)C(=O)N2)C(=O)CCSC[C@@H](C(=O)N[C@@H](CCCNC(=N)N)C(=O)N[C@@H](Cc2c[nH]c3ccccc23)C(=O)O)NC(=O)[C@H](CCCNC(=N)N)NC1=O (H-RCFRLSCRQLRCRW-OH; linker 2-7-12 via TATA) | 29.4
CC(C)C[C@@H]1NC(=O)[C@H](CCC(N)=O)NC(=O)[C@H](CCCNC(=N)N)NC(=O)[C@@H]2CSCCC(=O)N3CN(CN(C3)C(=O)CCSC[C@H](NC(=O)[C@@H](N)CCCNC(=N)N)C(=O)N[C@@H](Cc3ccccc3)C(=O)N[C@@H](CCCNC(=N)N)C(=O)N[C@@H](CC(C)C)C(=O)N[C@@H](CC(C)C)C(=O)N2)C(=O)CCSC[C@@H](C(=O)N[C@@H](CCCNC(=N)N)C(=O)N[C@@H](Cc2c[nH]c3ccccc23)C(=O)O)NC(=O)[C@H](CCCNC(=N)N)NC1=O (H-RCFRLLCRQLRCRW-OH; linker 2-7-12 via TATA) | 13
CC[C@H](C)[C@@H]1NC(=O)[C@H](CCC(N)=O)NC(=O)[C@H](CCCNC(=N)N)NC(=O)[C@@H]2CSCCC(=O)N3CN(CN(C3)C(=O)CCSC[C@H](NC(=O)[C@@H](N)CCCNC(=N)N)C(=O)N[C@@H](Cc3ccccc3)C(=O)N[C@@H](CCCNC(=N)N)C(=O)N[C@@H](CC(C)C)C(=O)N3CCC[C@H]3C(=O)N2)C(=O)CCSC[C@@H](C(=O)N[C@@H](CCCNC(=N)N)C(=O)N[C@@H](Cc2c[nH]c3ccccc23)C(=O)O)NC(=O)[C@H](CCCNC(=N)N)NC1=O (H-RCFRLPCRQIRCRW-OH; linker 2-7-12 via TATA) | 78
CC[C@H](C)[C@H](N)C(=O)N[C@H]1CSCCC(=O)N2CN3CN(C2)C(=O)CCSC[C@H](NC(=O)[C@@H]2CCCN2C(=O)[C@H](CC(C)C)NC(=O)[C@H](CCCNC(=N)N)NC(=O)[C@H](Cc2ccccc2)NC1=O)C(=O)N[C@@H](CCCNC(=N)N)C(=O)N[C@@H](CCC(N)=O)C(=O)N[C@@H](CC(C)C)C(=O)N[C@@H](CCCNC(=N)N)C(=O)N[C@H](C(=O)N[C@@H](CCCNC(=N)N)C(=O)O)CSCCC3=O (H-ICFRLPCRQLRCR-OH; linker 2-7-12 via TATA) | 83
CC(C)C[C@@H]1NC(=O)[C@H](CCC(N)=O)NC(=O)[C@H](CCCNC(=N)N)NC(=O)[C@@H]2CSCCC(=O)N3CN(CN(C3)C(=O)CCSC[C@H](NC(=O)[C@@H](N)CCCNC(=N)N)C(=O)N[C@@H](Cc3ccccc3F)C(=O)N[C@@H](CCCNC(=N)N)C(=O)N[C@@H](CC(C)C)C(=O)N3CCC[C@H]3C(=O)N2)C(=O)CCSC[C@@H](C(=O)N[C@@H](CCCNC(=N)N)C(=O)N[C@@H](Cc2c[nH]c3ccccc23)C(=O)O)NC(=O)[C@H](CCCNC(=N)N)NC1=O | 26.8
